Test results: patent US12209087B2, “AKT1 modulators” (Alterome Therapeutics, Inc., priority 2022, dated 2025)

biological target: T1, full length AKT E17K (Homo sapiens, UniProt P31749, E17K); assay: NanoBRET Target Engagement (TE) Assay; format: cell-based; conditions: competitive displacement of tracer in cells, read-out: AKT1 E17K IC50
T1 construct: host or cells: HEK-293 (ATCC CRL-1573)
In short: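 Compound and tracer incubated 2 h before luminescence at donor 450 nm and acceptor 600 nm, with extracellular signal inhibited. EC50 by sigmoidal variable-slope regression.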

T1 sequence (P31749 whole entry E17K): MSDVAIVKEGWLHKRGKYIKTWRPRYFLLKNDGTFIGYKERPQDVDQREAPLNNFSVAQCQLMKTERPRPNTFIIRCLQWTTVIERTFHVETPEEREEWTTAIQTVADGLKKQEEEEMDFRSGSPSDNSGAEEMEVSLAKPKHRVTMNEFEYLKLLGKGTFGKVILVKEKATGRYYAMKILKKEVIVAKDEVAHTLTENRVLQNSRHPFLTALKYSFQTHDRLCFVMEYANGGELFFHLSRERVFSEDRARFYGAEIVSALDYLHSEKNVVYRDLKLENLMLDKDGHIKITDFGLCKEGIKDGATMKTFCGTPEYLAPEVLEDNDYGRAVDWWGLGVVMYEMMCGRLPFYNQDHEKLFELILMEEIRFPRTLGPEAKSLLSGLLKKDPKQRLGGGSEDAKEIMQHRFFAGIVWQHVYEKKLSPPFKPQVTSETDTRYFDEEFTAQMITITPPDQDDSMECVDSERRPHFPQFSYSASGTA

IC50 [nM] | Compound
< 15 | COc1ccc(-c2ccc3nc(-c4cccnc4N)n(-c4ccc(CN5CCC(Nc6ccnc(C#N)n6)CC5)cc4)c3n2)nc1 [Example 552, 4-((1-(4-(2-(2-Aminopyridin-3-yl)-5-(5-methoxypyridin-2-yl)-3H-imidazo[4,5-b]pyridin-3-yl)benzyl)piperidin-4-yl)amino)pyrimidine-2-carbonitrile]
< 15 | N#Cc1nccc(NC2CCN(Cc3ccc(-n4c(-c5cccnc5N)nc5ccc(-c6ccns6)nc54)cc3)CC2)n1 [Example 483, 4-((1-(4-(2-(2-Aminopyridin-3-yl)-5-(isothiazol-5-yl)-3H-imidazo[4,5-b]pyridin-3-yl)benzyl)piperidin-4-yl)amino)pyrimidine-2-carbonitrile]
< 15 | N#Cc1nccc(NC2CCN(Cc3ccc(-n4c(-c5cccnc5N)nc5ccc(-c6cccc(N7CCCC7=O)c6)nc54)cc3)CC2)n1 [Example 468, 4-((1-(4-(2-(2-Aminopyridin-3-yl)-5-(3-(2-oxopyrrolidin-1-yl)phenyl)-3H-imidazo[4,5-b]pyridin-3-yl)benzyl)piperidin-4-yl)amino)pyrimidine-2-carbonitrile]
< 15 | N#Cc1nccc(NC2CCN(Cc3ccc(-n4c(-c5cccnc5N)nc5ccc(-c6ncccc6F)nc54)cc3)CC2)n1 [Example 570, 4-((1-(4-(2-(2-Aminopyridin-3-yl)-5-(3-fluoropyridin-2-yl)-3H-imidazo[4,5-b]pyridin-3-yl)benzyl)piperidin-4-yl)amino)pyrimidine-2-carbonitrile]
< 15 | COc1cccc(-c2ccc3nc(-c4cccnc4N)n(-c4ccc(CN5CCC(Nc6ccnc(C#N)n6)CC5)cc4)c3n2)c1 [Example 395, 4-((1-(4-(2-(2-Aminopyridin-3-yl)-5-(3-methoxyphenyl)-3H-imidazo[4,5-b]pyridin-3-yl)benzyl)piperidin-4-yl)amino)pyrimidine-2-carbonitrile]
15 to 60 | CC(C)(C)c1ccc2nc(-c3cccnc3N)n(-c3ccc(CN4CCC(Nc5ccnc(C#N)n5)CC4)cc3)c2n1 [Example 396, 4-((1-(4-(2-(2-Aminopyridin-3-yl)-5-(tert-butyl)-3H-imidazo[4,5-b]pyridin-3-yl)benzyl)piperidin-4-yl)amino)pyrimidine-2-carbonitrile]
< 15 | CSc1ccc2nc(-c3cccnc3N)n(-c3ccc(CN4CCC(Nc5ccnc(C#N)n5)CC4)cc3)c2n1 [Example 435, 4-((1-(4-(2-(2-Aminopyridin-3-yl)-5-(methylthio)-3H-imidazo[4,5-b]pyridin-3-yl)benzyl)piperidin-4-yl)amino)pyrimidine-2-carbonitrile]
< 15 | COc1cccnc1-c1ccc2nc(-c3cccnc3N)n(-c3ccc(CN4CCC(Nc5ccnc(C#N)n5)CC4)cc3)c2n1 [Example 563, 4-((1-(4-(2-(2-Aminopyridin-3-yl)-5-(3-methoxypyridin-2-yl)-3H-imidazo[4,5-b]pyridin-3-yl)benzyl)piperidin-4-yl)amino)pyrimidine-2-carbonitrile]

same assay, conditions: competitive tracer displacement in living cells, read-out: AKT1 E17K IC50

IC50 [nM] | Compound
15 to 60 | CC(=O)Nc1cccc(-c2ccc3nc(-c4cccnc4N)n(-c4ccc(CN5CCN(c6ccnc(C#N)c6)CC5)cc4)c3n2)c1 [Example 37, N-(3-(2-(2-Aminopyridin-3-yl)-3-(4-((4-(2-cyanopyridin-4-yl)piperazin-1-yl)methyl)phenyl)-3H-imidazo[4,5-b]pyridin-5-yl)phenyl)acetamide]
15 to 60 | N#Cc1ncnc(N2CCCN(Cc3ccc(-n4c(-c5cccnc5N)nc5ccc(-c6ccccc6)nc54)cc3)CC2)n1 [Example 250, 4-(4-(4-(2-(2-Aminopyridin-3-yl)-5-phenyl-3H-imidazo[4,5-b]pyridin-3-yl)benzyl)-1,4-diazepan-1-yl)-1,3,5-triazine-2-carbonitrile]
600 to 10000 | N#Cc1ccnc(NCc2ccc(-n3c(-c4cccnc4N)nc4cccnc43)cc2)n1 [Example 134, 2-((4-(2-(2-Aminopyridin-3-yl)-3H-imidazo[4,5-b]pyridin-3-yl)benzyl)amino)pyrimidine-4-carbonitrile]
15 to 60 | N#Cc1nccc(C(=O)NC2C3CCC2CN(Cc2ccc(-n4c(-c5cccnc5N)nc5ccc(-c6ccccc6)nc54)cc2)C3)n1 (centres unmarked) [Example 229, N-(3-(4-(2-(2-aminopyridin-3-yl)-5-phenyl-3H-imidazo[4,5-b]pyridin-3-yl)benzyl)-3-azabicyclo[3.2.1]octan-8-yl)-2-cyanopyrimidine-4-carboxamide]
60 to 600 | CN(C)C(=O)c1ccc2nc(-c3cccnc3N)n(-c3ccc(CN4CCC(Nc5ccnc(C#N)n5)CC4)cc3)c2n1 [Example 289, 2-(2-aminopyridin-3-yl)-3-(4-((4-((2-cyanopyrimidin-4-yl)amino)piperidin-1-yl)methyl)phenyl)-N,N-dimethyl-3H-imidazo[4,5-b]pyridine-5-carboxamide]
600 to 10000 | N#Cc1cnnc(NC2CCN(Cc3ccc(-n4c(-c5cccnc5N)nc5cccnc54)cc3)CC2)c1 [Example 51, 6-((1-(4-(2-(2-Aminopyridin-3-yl)-3H-imidazo[4,5-b]pyridin-3-yl)benzyl)piperidin-4-yl)amino)pyridazine-4-carbonitrile]
< 15 | N#Cc1ccnc(N2CCN(Cc3ccc(-n4c(-c5cccnc5N)nc5ccc(-c6ccccc6)nc54)cc3)CC2)n1 [Example 68, 2-(4-(4-(2-(2-Aminopyridin-3-yl)-5-phenyl-3H-imidazo[4,5-b]pyridin-3-yl)benzyl)piperazin-1-yl)pyrimidine-4-carbonitrile]
< 15 | CC(=O)Nc1cccc(-c2ccc3nc(-c4cccnc4N)n(-c4ccc(CN5CCN(c6cncc(C#N)n6)CC5)cc4)c3n2)c1 [Example 40, N-(3-(2-(2-aminopyridin-3-yl)-3-(4-((4-(6-cyanopyrazin-2-yl)piperazin-1-yl)methyl)phenyl)-3H-imidazo[4,5-b]pyridin-5-yl)phenyl)acetamide]
15 to 60 | N#Cc1cc(NC2CCN(Cc3ccc(-n4c(-c5cccnc5N)nc5ccc(-c6ccccc6)nc54)cc3)CC2)cnn1 [Example 158, 5-((1-(4-(2-(2-Aminopyridin-3-yl)-5-phenyl-3H-imidazo[4,5-b]pyridin-3-yl)benzyl)piperidin-4-yl)amino)pyridazine-3-carbonitrile]
15 to 60 | N#Cc1cc(N2CCN(Cc3ccc(-n4c(-c5cccnc5N)nc5ccc(C6CC6)nc54)cc3)CC2)ncn1 [Example 290, 6-(4-(4-(2-(2-Aminopyridin-3-yl)-5-cyclopropyl-3H-imidazo[4,5-b]pyridin-3-yl)benzyl)piperazin-1-yl)pyrimidine-4-carbonitrile]
15 to 60 | N#Cc1ncc(N2CCN(Cc3ccc(-n4c(-c5cccnc5N)nc5ccc(-c6ccccc6)nc54)cc3)CC2)cn1 [Example 97, 5-(4-(4-(2-(2-aminopyridin-3-yl)-5-phenyl-3H-imidazo[4,5-b]pyridin-3-yl)benzyl)piperazin-1-yl)pyrimidine-2-carbonitrile]
600 to 10000 | N#Cc1ccc(C(=O)N2CCN(Cc3ccc(-n4c(-c5cccnc5N)nc5cccnc54)cc3)CC2)nc1 [Example 80, 6-(4-(4-(2-(2-Aminopyridin-3-yl)-3H-imidazo[4,5-b]pyridin-3-yl)benzyl)piperazine-1-carbonyl)nicotinonitrile]
